Drawing on ChEMBL document CHEMBL1150470, “The synthesis and cognition enhancing effects of a series of dibenzoyl guanidines. Analogs of N,N-[[4-(aminocarbonyl)phenyl]carbonimidoyl]bis[benzamide]” (1992), this text covers survival and Improvement for 29 molecules.

Calls of active or inactive are those of the source. The rule behind the calls is not given here.

In assay [1] the test system is Mus musculus. The experiment in a line: Evaluated for hypoxic survival activity in mice after intraperitoneal administration at 10 mg/kg dose. The assay is classed as functional. Particulars: ip.
Assay [2] relates to Mus musculus. The experiment in a line: Evaluated for hypoxic survival activity in mice after intraperitoneal administration at 100 mg/kg dose; 55-80. Type of assay: functional. Particulars: ip.
The subject of assay [3] is Mus musculus. Briefly: The compound was evaluated for improvement of anoxic amnesia in mice after ip administration at 100 mg/kg dose; Inactive. Also noted: dose 100 mg/kg. The assay is classed as functional, organism-based.
The test system of assay [4] is Mus musculus. Briefly: Evaluated for hypoxic survival activity in mice after intraperitoneal administration at 100 mg/kg dose. Particulars: ip. Type of assay: functional.
For assay [5], the system named is Mus musculus. The experiment in a line: The compound was evaluated for improvement of anoxic amnesia in mice after ip administration at 50-200 mg/kg dose; Inactive. Type of assay: functional, organism-based.
The subject of assay [6] is Mus musculus. The experiment in a line: Evaluated for hypoxic survival activity in mice after intraperitoneal administration at 100 mg/kg dose; 65-80. Type of assay: functional. The following applies: ip.
Assay [7] concerns Mus musculus. Briefly: Evaluated for hypoxic survival activity in mice after intraperitoneal administration at 25 mg/kg dose; 5-55. Type of assay: functional. Particulars: ip.
The test system of assay [8] is Mus musculus. Briefly: Evaluated for hypoxic survival activity in mice after intraperitoneal administration at 100 mg/kg dose; 30-95. The assay is classed as functional. The following applies: ip.
For assay [9], the system named is Mus musculus. The experiment in a line: Evaluated for hypoxic survival activity in mice after intraperitoneal administration at 100 mg/kg dose; 15-50. Type of assay: functional. Particulars: ip.
In assay [10] the test system is Mus musculus. The experiment in a line: Evaluated for hypoxic survival activity in mice after intraperitoneal administration at 100 mg/kg dose; 35-50. The assay is classed as functional. Particulars: ip.
The test system of assay [11] is Mus musculus. Briefly: Evaluated for hypoxic survival activity in mice after intraperitoneal administration at 0.125 mg/kg dose; 60-80. Type of assay: functional. The following applies: ip.
Assay [12] relates to Mus musculus. The experiment in a line: The compound was evaluated for improvement of anoxic amnesia in mice after ip administration at 50 mg/kg dose; 33-76. Type of assay: functional. The following applies: route intraperitoneal.
Assay [13] deals with Mus musculus. Briefly: Evaluated for hypoxic survival activity in mice after intraperitoneal administration at 100 mg/kg dose; 45-70. The assay is classed as functional. Particulars: ip.
For assay [14], the system named is Mus musculus. Briefly: Evaluated for hypoxic survival activity in mice after po administration of 100 mg/kg dose. Type of assay: functional.
The test system of assay [15] is Mus musculus. The experiment in a line: Evaluated for hypoxic survival activity in mice after intraperitoneal administration at 10 mg/kg dose; 50-80. Type of assay: functional. Particulars: ip.
Assay [16] has as its system Mus musculus. Briefly: The compound was evaluated for improvement of anoxic amnesia in mice after ip administration at 100 mg/kg dose. Type of assay: functional. Particulars: route intraperitoneal.
In assay [17] the test system is Mus musculus. Briefly: Evaluated for hypoxic survival activity in mice after intraperitoneal administration at 50 mg/kg dose; 35-50. The following applies: ip. The assay is classed as functional.
Assay [18] concerns Mus musculus. The experiment in a line: The compound was evaluated for improvement of anoxic amnesia in mice after ip administration at 50 mg/kg dose; 53, -8, 102. The assay is classed as functional. The following applies: route intraperitoneal.
Assay [19] concerns Mus musculus. The experiment in a line: Evaluated for hypoxic survival activity in mice after intraperitoneal administration at 100 mg/kg dose; 95-95. The assay is classed as functional. Particulars: ip.
For assay [20], the system named is Mus musculus. The experiment in a line: The compound was evaluated for improvement of anoxic amnesia in mice after ip administration at 10 mg/kg dose; 74-(-19). Type of assay: functional. The following applies: route intraperitoneal.
The test system of assay [21] is Mus musculus. Briefly: Evaluated for hypoxic survival activity in mice after intraperitoneal administration at 10 mg/kg dose; 50-50. The assay is classed as functional. Particulars: ip.
In assay [22] the test system is Mus musculus. The experiment in a line: The compound was evaluated for improvement of anoxic amnesia in mice after ip administration at 25 mg/kg dose. Type of assay: functional. Particulars: route intraperitoneal.
The test system of assay [23] is Mus musculus. The experiment in a line: Evaluated for hypoxic survival activity in mice after intraperitoneal administration at 10 mg/kg dose; 45-55. Type of assay: functional. The following applies: ip.
The subject of assay [24] is Mus musculus. Briefly: Evaluated for hypoxic survival activity in mice after intraperitoneal administration at 10 mg/kg dose; 40-55. Particulars: ip. Type of assay: functional.
The subject of assay [25] is Mus musculus. Briefly: The compound was evaluated for improvement of anoxic amnesia in mice after ip administration at 10 mg/kg dose; Inactive. Type of assay: functional, organism-based. Also noted: dose 10 mg/kg.
The test system of assay [26] is Mus musculus. Briefly: The compound was evaluated for improvement of anoxic amnesia in mice after ip administration at 10 mg/kg dose. Particulars: route intraperitoneal. Type of assay: functional.
Assay [27] deals with Mus musculus. Briefly: The compound was evaluated for improvement of anoxic amnesia in mice after ip administration at 50 mg/kg dose. The following applies: route intraperitoneal. The assay is classed as functional.
Assay [28] deals with Mus musculus. The experiment in a line: Evaluated for hypoxic survival activity in mice after intraperitoneal administration at 25 mg/kg dose; 55-65. Particulars: ip. Type of assay: functional.
Assay [29] deals with Mus musculus. The experiment in a line: Evaluated for hypoxic survival activity in mice after intraperitoneal administration at 100 mg/kg dose; 40-40. Type of assay: functional. The following applies: ip.
Assay [30] has as its system Mus musculus. Briefly: Evaluated for hypoxic survival activity in mice after intraperitoneal administration at 25 mg/kg dose; 25-55. The assay is classed as functional. Particulars: ip.
Assay [31] has as its system Mus musculus. Briefly: Evaluated for hypoxic survival activity in mice after intraperitoneal administration at 50 mg/kg dose. Type of assay: functional. Particulars: ip.
The subject of assay [32] is Mus musculus. The experiment in a line: Evaluated for hypoxic survival activity in mice after intraperitoneal administration at 100 mg/kg dose; 5-45. The assay is classed as functional. Particulars: ip.

In turn, `Cc1ccc(C(=O)N/C(=N/C(=O)c2ccccc2)Nc2ccc(C(N)=O)cc2)cc1` returned a survival at 10 mg/kg with Mus musculus [1] of 5%.

As for `NC(=O)c1ccc(N/C(=N\C(=O)c2ccc(F)cc2)NC(=O)c2cccc(F)c2)cc1`, in the assay with Mus musculus [2], the survival at 100 mg/kg is 68%. The Improvement entry in the assay with Mus musculus [3] is “inactive”. In the assay on Mus musculus [4], `COc1ccc(C(=O)/N=C(/NC(=O)c2ccc(C)cc2)Nc2ccc(C(N)=O)cc2)cc1` showed a survival at 100 mg/kg of 43%. The Improvement entry in the assay on Mus musculus [5] is “inactive”. As to `CC(C)(C)c1ccc(C(=O)N/C(=N/C(=O)c2ccccc2)Nc2ccc(C(N)=O)cc2)cc1`, the survival at 100 mg/kg with Mus musculus [6] is 72%. `Cc1cccc(C(=O)N/C(=N/C(=O)c2ccccc2)Nc2ccc(C(N)=O)cc2)c1` displayed a survival at 100 mg/kg in the assay on Mus musculus [4] of 25%. In turn, `NC(=O)c1ccc(N/C(=N\C(=O)c2ccccc2)NC(=O)c2ccc(F)cc2)cc1` displayed a survival at 25 mg/kg with Mus musculus [7] of 35%. For `NC(=O)c1ccc(N/C(=N\C(=O)c2ccccc2)NC(=O)c2cccc([N+](=O)[O-])c2)cc1`, the survival at 100 mg/kg with Mus musculus [8] amounted to 60%. For `N#Cc1ccc(C(=O)N/C(=N/C(=O)c2ccccc2)Nc2ccc(C(N)=O)cc2)cc1`, in the assay on Mus musculus [9], the survival at 100 mg/kg came to 38%. As for `COc1ccc(C(=O)/N=C(/NC(=O)c2cccc(Cl)c2)Nc2ccc(C(N)=O)cc2)cc1`, the survival at 10 mg/kg in the assay on Mus musculus [1] was 15%. In the case of `COc1ccc(C(=O)/N=C(/NC(=O)c2ccc(F)cc2)Nc2ccc(C(N)=O)cc2)cc1`, the Improvement entry in the assay with Mus musculus [5] is “inactive”. Besides, in the assay on Mus musculus [10], the survival at 100 mg/kg was 42%. In the assay on Mus musculus [11], `CNC(=O)Oc1ccc2c(c1)[C@]1(C)CCN(C)[C@@H]1N2C` [PHYSOSTIGMINE] had a survival at 0.125 mg/kg of 60%. The molecule `COc1ccc(C(=O)/N=C(/NC(=O)c2ccc(OC)cc2)Nc2ccc(C(N)=O)cc2)cc1` gave a survival at 10 mg/kg in the assay with Mus musculus [1] of 15%. As to `NC(=O)c1ccc(N/C(=N\C(=O)c2ccccc2)NC(=O)c2ccccc2)cc1`, in the assay on Mus musculus [12], the Improvement is 50%. For the same molecule, the survival at 100 mg/kg stood at 57% with Mus musculus [13] and 48% in the assay on Mus musculus [14]. `CCOc1cccc(C(=O)N/C(=N/C(=O)c2ccccc2)Nc2ccc(C(N)=O)cc2)c1` registered a survival at 10 mg/kg in the assay on Mus musculus [15] of 67%. As to `Cc1cccc(C(=O)/N=C(/NC(=O)c2cccc(C)c2)Nc2ccc(C(N)=O)cc2)c1`, in the assay with Mus musculus [16], the Improvement came to 20%. Besides, the survival at 50 mg/kg with Mus musculus [17] was 40%. In the assay on Mus musculus [18], `NC(=O)c1ccc(N/C(=N\C(=O)c2ccccc2)NC(=O)c2cccc(Cl)c2)cc1` registered an Improvement of 49%. The molecule further yielded a survival at 100 mg/kg with Mus musculus [19] of 95%. In the assay on Mus musculus [20], `COc1ccc(C(=O)N/C(=N/C(=O)c2ccccc2)Nc2ccc(C(N)=O)cc2)cc1` had an Improvement of 28%. The same molecule returned a survival at 10 mg/kg with Mus musculus [21] of 50%.

In turn, `NC(=O)c1ccc(N/C(=N\C(=O)c2ccccc2)NC(=O)c2cccc(Br)c2)cc1` displayed an Improvement with Mus musculus [22] of 118%. In addition, in the assay with Mus musculus [23], the survival at 10 mg/kg worked out at 50%. In the case of `CN(C)CCOc1ccc(C(=O)N/C(=N/C(=O)c2ccccc2)Nc2ccc(C(N)=O)cc2)cc1`, the survival at 10 mg/kg in the assay on Mus musculus [24] is 48%. The Improvement entry in the assay on Mus musculus [25] was “inactive”.

On to `NC(=O)c1ccc(N/C(=N\C(=O)c2ccccc2)NC(=O)c2ccccc2C(F)(F)F)cc1`, for which, in the assay on Mus musculus [1], the survival at 10 mg/kg amounted to 5%.

The molecule `NC(=O)c1ccc(N/C(=N\C(=O)c2ccc(F)cc2)NC(=O)c2cccc(Cl)c2)cc1` yielded a survival at 10 mg/kg with Mus musculus [1] of 25%. Molecule `COc1ccc(C(=O)/N=C(/NC(=O)c2cccc(C)c2)Nc2ccc(C(N)=O)cc2)cc1` gave an Improvement with Mus musculus [26] of 28%. In addition, the survival at 10 mg/kg in the assay on Mus musculus [23] is 50%. On to `NC(=O)c1ccc(N/C(=N\C(=O)c2ccccc2)NC(=O)c2ccc(Br)cc2)cc1`, for which the Improvement in the assay on Mus musculus [27] turned out to be 12%. The molecule further returned a survival at 25 mg/kg in the assay on Mus musculus [28] of 60%.

For `NC(=O)c1ccc(N/C(=N\C(=O)c2ccccc2)NC(=O)c2ccc(C(F)(F)F)cc2)cc1`, in the assay with Mus musculus [29], the survival at 100 mg/kg turned out to be 40%.

Molecule `NC(=O)c1ccc(N/C(=N\C(=O)c2cccc(C(F)(F)F)c2)NC(=O)c2cccc(C(F)(F)F)c2)cc1` came in with a survival at 100 mg/kg in the assay on Mus musculus [4] of 5%.

Take `NC(=O)c1ccc(N/C(=N\C(=O)c2ccccc2)NC(=O)c2cccc(C(F)(F)F)c2)cc1`: the survival at 10 mg/kg with Mus musculus [1] amounted to 15%. Turning to `NC(=O)c1ccc(N/C(=N\C(=O)c2ccc(F)cc2)NC(=O)c2ccc(Br)cc2)cc1`, in the assay with Mus musculus [30], the survival at 25 mg/kg is 40%. Molecule `COc1ccc(C(=O)/N=C(/NC(=O)c2ccc(C(F)(F)F)cc2)Nc2ccc(C(N)=O)cc2)cc1` returned a survival at 50 mg/kg with Mus musculus [31] of 55%.

`NC(=O)c1ccc(N/C(=N\C(=O)c2ccccc2)NC(=O)c2ccc([N+](=O)[O-])cc2)cc1` yielded a survival at 100 mg/kg in the assay with Mus musculus [32] of 25%.
